Patent US5428059A, “Benzopyran derivatives and an anti-allergic agent possessing the same as the active ingredient” (Dainippon Ink & Chemicals, Inc., priority 1991, dated 1995)

Test system: not listed separately
Assay: Mouse Acute Toxicity Assay (oral, 7 days observation)
Details: in vivo, ICR-type male mice, single forced oral administration 1000 and 2000 mg/kg, estimated from survival ratio
Experimental: Mouse Acute Toxicity Assay
The present Example was carried out in order to confirm the safety of the novel compound according to the present invention. In the following the assay method used will be explained.
Assay method: After ICR-type male mice (body weight=20~25 g) were fasted for 16 hours, each substance to be tested was forcibly administered orally at 1000 mg/kg and 2000 mg/kg to groups of five mice, using a esophageal sound. After administration, the mice were kept in cages for seven days, following which observations were made on the general conditions and existence of dead animals. From the survival ratio of the mice at the end of the observation, the lethal dose 50 (LD50) was estimated.
The results of the mouse acute toxicity assay are recorded in Tables 1 and 2.

With CC(C)=CCC/C(C)=C/COc1c(O)c2cc(O)ccc2oc1=O [Compound 269, 4,6-(dihydroxy)-3-(geranyloxy)-2H-1-benzopyran-2-one] as the compound, how does the LD50 at 168 h read?
The LD50 at 168 h was greater than 1000 mg/kg.

For CC(C)=CCC/C(C)=C/COc1ccc2oc(=O)c(O)c(O)c2c1 [Compound 280, 3,4-(dihydroxy)-6-(geranyloxy)-2H-1-benzopyran-2-one], which LD50 at 168 h is on record?
Its LD50 at 168 h is greater than 1000 mg/kg.

With COc1c(O)c2cc(OC(C)=O)ccc2oc1=O [Compound 270, 3-(methoxy)-4-hydroxy-6-(acetoxy)-2H-1-benzopyran-2-one] as the compound, how does the LD50 at 168 h read?
The LD50 at 168 h was greater than 2000 mg/kg.

Test system: Hartley-type male guinea pigs
Assay: Guinea Pig Homogeneous Skin Passive Anaphylaxis Assay (PCA reaction)
Type: in vivo, guinea pig (Hartley-type)
Details: 10 mg/kg oral, 48 h after sensitization
Outline: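 Male Hartley guinea pigs (250~300 g) given intradermal back injections of 120-fold-diluted anti-OVA serum; 48 h later test substance dosed orally at 10 mg/kg, then challenged i.v. with OVA plus Evans Blue. Dye-spot area (long × short diameter, mm^2) measured at 30 min; inhibition % calculated against solvent control.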

With COc1cccc2c(OC(C)=O)c(OC(C)=O)c(=O)oc12 [Compound 113, 3,4-(diacetoxy)-8-(methoxy)-2H-1-benzopyran-2-one] as the compound, how does the “Allergic reaction inhibitory index (%)” value read?
The value was 30%.

Same assay, conditions: Cavia porcellus, 10 mg/kg oral, 48 h after sensitization, read-out: Allergic reaction inhibitory index (%)

For CC(C)=CCC/C(C)=C/COc1c(O)c2cc(O)ccc2oc1=O [Compound 269, 4,6-(dihydroxy)-3-(geranyloxy)-2H-1-benzopyran-2-one], which inhibition in vivo at 10 mg/kg is on record?
Its inhibition in vivo at 10 mg/kg is 33%.

Which inhibition in vivo at 10 mg/kg does the source give for CC(C)=CCC/C(C)=C/COc1ccc2oc(=O)c(O)c(O)c2c1 [Compound 280, 3,4-(dihydroxy)-6-(geranyloxy)-2H-1-benzopyran-2-one] here?
The inhibition in vivo at 10 mg/kg was 35%.

Which inhibition in vivo at 10 mg/kg does the source give for COc1c(O)c2cc(OC(C)=O)ccc2oc1=O [Compound 270, 3-(methoxy)-4-hydroxy-6-(acetoxy)-2H-1-benzopyran-2-one] here?
Its inhibition in vivo at 10 mg/kg is 35%.

Which inhibition in vivo at 10 mg/kg does the source give for CCCCCCCCCCOc1ccc2c(O)c(OC(=O)c3ccccc3)c(=O)oc2c1 [Compound 58, 3-(benzoyloxy)-4-hydroxy-7-(decyloxy)-2H-1-benzopyran-2-one] here?
The inhibition in vivo at 10 mg/kg was 38%.

With COc1ccc2c(OC(=O)c3ccccc3)c(OC/C=C(\C)CCC=C(C)C)c(=O)oc2c1 [Compound 39, 3-(geranyloxy)-4-(benzoyloxy)-7-(methoxy)-2H-1-benzopyran-2-one] as the compound, how does the inhibition in vivo at 10 mg/kg read?
The inhibition in vivo at 10 mg/kg was 30%.

With CC(C)=CCC/C(C)=C/COc1c(OC(C)C)c2c(OC(C)C)cccc2oc1=O [Compound 221, 3-(geranyloxy)-4,5-(diisopropoxy)-2H-1-benzopyran-2-one] as the compound, how does the inhibition in vivo at 10 mg/kg read?
The inhibition in vivo at 10 mg/kg was 33%.

For CC(C)=CCC/C(C)=C/COc1cccc2c(O)c(O)c(=O)oc12 [Compound 159, 3,4-(hydroxy)-8-(geranyloxy)-2H-1-benzopyran-2-one], which inhibition in vivo at 10 mg/kg is on record?
Its inhibition in vivo at 10 mg/kg is 36%.

Which inhibition in vivo at 10 mg/kg does the source give for CC(C)=CCC/C(C)=C/COc1c(OC/C=C(\C)CCC=C(C)C)c2c(OC(C)C)cccc2oc1=O [Compound 223, 3,4-(digeranyloxy)-5-(isopropoxy)-2H-1-benzopyran-2-one] here?
Its inhibition in vivo at 10 mg/kg is 33%.

Which inhibition in vivo at 10 mg/kg does the source give for CC(C)=CCC/C(C)=C/COc1c(O)c2c(OC(C)C)cccc2oc1=O [Compound 219, 3-(geranyloxy)-4-hydroxy-5-(isopropoxy)-2H-1-benzopyran-2-one] here?
The inhibition in vivo at 10 mg/kg was 36%.

With COc1cccc2oc(=O)c(OC/C=C(\C)CCC=C(C)C)c(O)c12 [Compound 203, 3-(geranyloxy)-4-hydroxy-5-(methoxy)-2H-1-benzopyran-2-one] as the compound, how does the inhibition in vivo at 10 mg/kg read?
Its inhibition in vivo at 10 mg/kg is 41%.

With CCCCCCCCCCOc1cccc2oc(=O)c(O)c(OCCCC)c12 [Compound 234, 3-hydroxy-4-(butoxy)-5-(decyloxy)-2H-1-benzopyran-2-one] as the compound, how does the inhibition in vivo at 10 mg/kg read?
Its inhibition in vivo at 10 mg/kg is 33%.

For CCCCCCCCCCOc1ccc2c(OC(C)C)c(OC)c(=O)oc2c1 [Compound 64, 3-(methoxy)-4-(isopropoxy)-7-(decyloxy)-2H-1-benzopyran-2-one], which inhibition in vivo at 10 mg/kg is on record?
The inhibition in vivo at 10 mg/kg was 30%.

For CCCCCCCCCCOc1ccc2c(OC)c(OC(C)C)c(=O)oc2c1 [Compound 66, 3-(isopropoxy)-4-(methoxy)-7-(decyloxy)-2H-1-benzopyran-2-one], which inhibition in vivo at 10 mg/kg is on record?
Its inhibition in vivo at 10 mg/kg is 30%.

For CCCCCCCCCCOc1cccc2oc(=O)c(OC(=O)c3ccccc3)c(O)c12 [Compound 229, 3-(benzoyloxy)-4-hydroxy-5-(decyloxy)-2H-1-benzopyran-2-one], which inhibition in vivo at 10 mg/kg is on record?
Its inhibition in vivo at 10 mg/kg is 37%.

Which inhibition in vivo at 10 mg/kg does the source give for CCCCOc1cccc2oc(=O)c(OC(=O)c3ccccc3)c(O)c12 [Compound 226, 3-(benzoyloxy)-4-hydroxy-5-(butoxy)-2H-1-benzopyran-2-one] here?
The inhibition in vivo at 10 mg/kg was 33%.

Which inhibition in vivo at 10 mg/kg does the source give for CC(C)=CCC/C(C)=C/COc1cccc2c(O)c(OC(=O)c3ccccc3)c(=O)oc12 [Compound 158, 3-(benzoyloxy)-4-hydroxy-8-(geranyloxy)-2H-1-benzopyran-2-one] here?
Its inhibition in vivo at 10 mg/kg is 30%.

For CC(=O)Oc1c(OC/C=C(\C)CCC=C(C)C)c(=O)oc2c(OC(C)=O)cccc12 [Compound 105, 3-(geranyloxy)-4,8-(diacetoxy)-2H-1-benzopyran-2-one], which inhibition in vivo at 10 mg/kg is on record?
The inhibition in vivo at 10 mg/kg was 30%.

For CC(=O)Oc1c(OC/C=C(\C)CCC=C(C)C)c(=O)oc2c(OC/C=C(\C)CCC=C(C)C)cccc12 [Compound 169, 3,8-(digeranyloxy)-4-(acetoxy)-2H-1-benzopyran-2-one], which inhibition in vivo at 10 mg/kg is on record?
The inhibition in vivo at 10 mg/kg was 30%.

Which inhibition in vivo at 10 mg/kg does the source give for CCCCCCCCCCOc1cccc2c(OC)c(OC/C=C(\C)CCC=C(C)C)c(=O)oc12 [Compound 155, 3-(geranyloxy)-4-(methoxy)-8-(decyloxy)-2H-1-benzopyran-2-one] here?
Its inhibition in vivo at 10 mg/kg is 30%.

With CCCCCCCCCCOc1c(OC(C)C)c2cccc(OC/C=C(\C)CCC=C(C)C)c2oc1=O [Compound 164, 3-(decyloxy)-4-(isopropoxy)-8-(geranyloxy)-2H-1-benzopyran-2-one] as the compound, how does the inhibition in vivo at 10 mg/kg read?
Its inhibition in vivo at 10 mg/kg is 33%.

For COc1cccc2c(O)c(OC/C=C(\C)CCC=C(C)C)c(=O)oc12 [Compound 120, 3-(geranyloxy)-4-hydroxy-8-(methoxy)-2H-1-benzopyran-2-one], which inhibition in vivo at 10 mg/kg is on record?
Its inhibition in vivo at 10 mg/kg is 33%.

With CCCCCCCCCCOc1cccc2oc(=O)c(OC(=O)c3ccccc3)c(OC/C=C(\C)CCC=C(C)C)c12 [Compound 240, 3-(benzoyloxy)-4-(geranyloxy)-5-(decyloxy)-2H-1-benzopyran-2-one] as the compound, how does the inhibition in vivo at 10 mg/kg read?
Its inhibition in vivo at 10 mg/kg is 30%.

Which inhibition in vivo at 10 mg/kg does the source give for CC(C)=CCC/C(C)=C/COc1c(O)c(=O)oc2c(OC(C)C)cccc12 [Compound 139, 3-hydroxy-4-(geranyloxy)-8-(isopropoxy)-2H-1-benzopyran-2-one] here?
Its inhibition in vivo at 10 mg/kg is 33%.

With CC(C)=CCC/C(C)=C/COc1c(O)c2cccc(OC(C)C)c2oc1=O [Compound 138, 3-(geranyloxy)-4-hydroxy-8-(isopropoxy)-2H-1-benzopyran-2-one] as the compound, how does the inhibition in vivo at 10 mg/kg read?
The inhibition in vivo at 10 mg/kg was 35%.

For CC(C)Oc1cccc2oc(=O)c(O)c(OC(C)C)c12 [Compound 215, 3-hydroxy-4,5-(diisopropoxy)-2H-1-benzopyran-2-one], which inhibition in vivo at 10 mg/kg is on record?
The inhibition in vivo at 10 mg/kg was 34%.

For CCCCCCCCCCOc1ccc2c(OC(C)=O)c(OC(C)=O)c(=O)oc2c1 [Compound 61, 3,4-(diacetoxy)-7-(decyloxy)-2H-1-benzopyran-2-one], which inhibition in vivo at 10 mg/kg is on record?
The inhibition in vivo at 10 mg/kg was 30%.

Which inhibition in vivo at 10 mg/kg does the source give for CC(=O)Oc1cccc2oc(=O)c(OC(=O)c3ccccc3)c(OC(C)=O)c12 [Compound 181, 3-(benzoyloxy)-4,5-(diacetoxy)-2H-1-benzopyran-2-one] here?
Its inhibition in vivo at 10 mg/kg is 33%.

Which inhibition in vivo at 10 mg/kg does the source give for CC(=O)Oc1c(OC(=O)c2ccccc2)c(=O)oc2cccc(OC/C=C(\C)CCC=C(C)C)c12 [Compound 247, 3-(benzoyloxy)-4-(acetoxy)-5-(geranyloxy)-2H-1-benzopyran-2-one] here?
Its inhibition in vivo at 10 mg/kg is 34%.

For CCCCCCCCCCOc1c(O)c2c(OC(C)C)cccc2oc1=O [Compound 214, 3-(decyloxy)-4-hydroxy-5-(isopropoxy)-2H-1-benzopyran-2-one], which inhibition in vivo at 10 mg/kg is on record?
Its inhibition in vivo at 10 mg/kg is 38%.

With O=C(Oc1c(O)c(=O)oc2cc(O)ccc12)c1ccccc1 [Compound 8, 4-(benzoyloxy)-3,7-(dihydroxy)-2H-1-benzopyran-2-one] as the compound, how does the inhibition in vivo at 10 mg/kg read?
Its inhibition in vivo at 10 mg/kg is 40%.

For O=C(Oc1c(O)c2c(O)cccc2oc1=O)c1ccccc1 [Compound 176, 3-(benzoyloxy)-4,5-dihydroxy-2H-1-benzopyran-2-one], which inhibition in vivo at 10 mg/kg is on record?
The inhibition in vivo at 10 mg/kg was 34%.

For COc1ccc2c(OC)c(O)c(=O)oc2c1 [Compound 33, 3-hydroxy-4,7-(dimethoxy)-2H-1-benzopyran-2-one], which inhibition in vivo at 10 mg/kg is on record?
The inhibition in vivo at 10 mg/kg was 33%.

For CC(C)=CCC/C(C)=C/COc1c(O)c(=O)oc2cc(O)ccc12 [Compound 20, 3,7-(dihydroxy)-4-(geranyloxy)-2H-1-benzopyran-2-one], which inhibition in vivo at 10 mg/kg is on record?
Its inhibition in vivo at 10 mg/kg is 30%.

For COc1cccc2oc(=O)c(OC/C=C(\C)CCC=C(C)C)c(OC(=O)c3ccccc3)c12 [Compound 205, 3-(geranyloxy)-4-(benzoyloxy)-5-(methoxy)-2H-1-benzopyran-2-one], which inhibition in vivo at 10 mg/kg is on record?
Its inhibition in vivo at 10 mg/kg is 31%.

With COc1c(OC(C)C)c2c(OC)cccc2oc1=O [Compound 200, 3,5-(dimethoxy)-4-(isopropoxy)-2H-1-benzopyran-2-one] as the compound, how does the inhibition in vivo at 10 mg/kg read?
The inhibition in vivo at 10 mg/kg was 30%.

Which inhibition in vivo at 10 mg/kg does the source give for CC(C)=CCC/C(C)=C/COc1ccc2c(O)c(OC/C=C(\C)CCC=C(C)C)c(=O)oc2c1 [Compound 83, 3,7-(digeranyloxy)-4-hydroxy-2H-1-benzopyran-2-one] here?
Its inhibition in vivo at 10 mg/kg is 34%.

For COc1c(OC(C)=O)c2ccc(OC/C=C(\C)CCC=C(C)C)cc2oc1=O [Compound 82, 3-(methoxy)-4-(acetoxy)-7-(geranyloxy)-2H-1-benzopyran-2-one], which inhibition in vivo at 10 mg/kg is on record?
Its inhibition in vivo at 10 mg/kg is 30%.

For COc1cccc2oc(=O)c(O)c(OC/C=C(\C)CCC=C(C)C)c12 [Compound 204, 3-hydroxy-4-(geranyloxy)-5-(methoxy)-2H-1-benzopyran-2-one], which inhibition in vivo at 10 mg/kg is on record?
Its inhibition in vivo at 10 mg/kg is 30%.

For COc1ccc2c(OC(C)=O)c(OC(=O)c3ccccc3)c(=O)oc2c1 [Compound 35, 3-(benzoyloxy)-4-(acetoxy)-7-(methoxy)-2H-1-benzopyran-2-one], which inhibition in vivo at 10 mg/kg is on record?
Its inhibition in vivo at 10 mg/kg is 30%.

Which inhibition in vivo at 10 mg/kg does the source give for CCCCCCCCCCOc1cccc2c(OC/C=C(\C)CCC=C(C)C)c(O)c(=O)oc12 [Compound 152, 3-hydroxy-4-(geranyloxy)-8-(decyloxy)-2H-1-benzopyran-2-one] here?
The inhibition in vivo at 10 mg/kg was 31%.

For COc1ccc2c(OC(C)=O)c(O)c(=O)oc2c1 [Compound 31, 3-hydroxy-4-(acetoxy)-7-(methoxy)-2H-1-benzopyran-2-one], which inhibition in vivo at 10 mg/kg is on record?
The inhibition in vivo at 10 mg/kg was 38%.

Which inhibition in vivo at 10 mg/kg does the source give for COc1cccc2c(OC(=O)c3ccccc3)c(OC/C=C(\C)CCC=C(C)C)c(=O)oc12 [Compound 122, 3-(geranyloxy)-4-(benzoyloxy)-8-(methoxy)-2H-1-benzopyran-2-one] here?
Its inhibition in vivo at 10 mg/kg is 30%.
